Laboratory results as given in patent US20130079349A1 (JANSSEN PHARMACEUTICA NV, priority 2010, published 2013).

Columns and labels:
[1] = biological target: BACE1 (Homo sapiens, UniProt P56817); assay: Biochemical FRET based assay; settings: recombinant BACE1 1 μg/ml, 120 minutes at room temperature, pH 5.0; read-out: Biochemical FRET based assay pIC50 (converted)
Excerpt: This assay is a Fluorescence Resonance Energy Transfer Assay (FRET) based assay. The substrate for this assay is an APP derived 13 amino acids peptide that contains the ‘Swedish’ Lys-Met/Asn-Leu mutation of the amyloid precursor protein (APP) beta-secretase cleavage site. This substrate also contains two fluorophores: (7-methoxycoumarin-4-yl) acetic acid (Mca) is a fluorescent donor with excitation wavelength at 320 nm and emission at 405 nm and 2,4-Dinitrophenyl (Dnp) is a proprietary quencher acceptor. […] Upon cleavage by BACE1, the fluorophore Mca is separated from the quenching group Dnp, restoring the full fluorescence yield of the donor. The increase in fluorescence is linearly related to the rate of proteolysis.
Briefly in a 384-well format recombinant BACE1 protein in a final concentration of 1 μg/ml is incubated for 120 minutes at room temperature with 10 μm substrate in incubation buffer (40 mM Citrate buffer pH 5.0, 0.04% PEG, 4% DMSO) in the absence or presence of compound. Next the amount of proteolysis is directly measured by fluorescence measurement at T=0 and T=120 (excitation at 320 nm and emission at 405 nm). Results are expressed in RFU (relative fluorescence units), as difference between T120 and T0.

[2] = tested on: Abeta 1-42; assay: Cellular αLisa assay in SKNBE2 cells, Abeta 1-42; type: cell-based; settings: human neuroblastoma SKNBE2 expressing hAPP695, incubated for 18 hours; for IC50: Homo sapiens, SKNBE2, 18 h, read-out: Cellular αlisa assay in SKNBE2 cells Aβ42 pIC50 (converted)
Method: (§1) In two αLisa assays the levels of Abeta total and Abeta 1-42 produced and secreted into the medium of human neuroblastoma SKNBE2 cells are quantified. The assay is based on the human neuroblastoma SKNBE2 expressing the wild type Amyloid Precursor Protein (hAPP695). The compounds are diluted and added to these cells, incubated for 18 hours and then measurements of Abeta 1-42 and Abeta total are taken. Abeta total and Abeta 1-42 are measured by sandwich αLisa. αLisa is a sandwich assay using biotinylated antibody AbN/25 attached to streptavidin coated beads and antibody Ab4G8 or cAb42/26 conjugated acceptor beads for the detection of Abeta total and Abeta 1-42 respectively. In the presence of Abeta total or Abeta 1-42, the beads come into close proximity. The excitation of the donor beads provokes the release of singlet oxygen molecules that trigger a cascade of energy transfer in the acceptor beads, resulting in light emission. Light emission is measured after 1 hour incubation (excitation at […] and emission at 615 nm).
(§2) A best-fit curve is fitted by a minimum sum of squares method to the plot of %Controlmin versus compound concentration.

[3] = tested on: Abeta total; assay: Cellular αLisa assay in SKNBE2 cells, Abeta total; type: cell-based; settings: human neuroblastoma SKNBE2 expressing hAPP695, incubated for 18 hours; for IC50: Homo sapiens, SKNBE2, 18 h, read-out: Cellular αlisa assay in SKNBE2 cells Aβtotal pIC50 (converted)
Method: as §1, §2

Sequence of BACE1 (P56817 46-501): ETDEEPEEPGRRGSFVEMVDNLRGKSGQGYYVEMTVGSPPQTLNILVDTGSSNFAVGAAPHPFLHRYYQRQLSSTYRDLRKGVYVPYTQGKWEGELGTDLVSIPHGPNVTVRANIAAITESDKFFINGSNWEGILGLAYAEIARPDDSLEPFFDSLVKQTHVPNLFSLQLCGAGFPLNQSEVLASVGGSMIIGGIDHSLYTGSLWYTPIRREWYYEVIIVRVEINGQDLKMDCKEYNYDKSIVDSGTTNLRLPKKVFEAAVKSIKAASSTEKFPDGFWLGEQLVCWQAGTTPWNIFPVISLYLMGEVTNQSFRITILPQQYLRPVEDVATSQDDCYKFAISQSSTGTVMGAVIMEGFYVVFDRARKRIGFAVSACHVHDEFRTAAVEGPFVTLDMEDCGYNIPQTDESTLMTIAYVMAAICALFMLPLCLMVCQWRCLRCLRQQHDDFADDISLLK

SMILES	IC50 [1] [µM]	IC50 [2] [µM]	IC50 [3] [µM]	Cellular αlisa assay in SKNBE2 cells Aβ42 pIC50 [2]	Cellular αlisa assay in SKNBE2 cells Aβtotal pIC50 [3]	melting point [°C]
COc1cncc(-c2cccc(C3(C)N=C(N)CN(C)C3=O)c2)c1 (racemic) [Compound 2, rac-5-amino-3-[3-(5-methoxy-pyridin-3-yl)-phenyl]-1,3-dimethyl-3,6-dihydro-1H-pyrazin-2-one]	10.5	1.66	1.51			
CN1CC(N)=NC(C)(c2cccc(NC(=O)c3ccc(Cl)cn3)c2)C1=O (racemic) [Compound 3, rac-5-chloro-pyridine-2-carboxylic acid [3-(6-amino-2,4-dimethyl-3-oxo-2,3,4,5-tetrahydro-pyrazin-2-yl)-phenyl]-amide]		0.0646	0.0275			
CN1CC(N)=NC(C)(c2cccc(NC(=O)c3ccc(Cl)cn3)c2)C1=O (single isomer, unassigned) [Compound 4, (S*)-5-chloro-pyridine-2-carboxylic acid [3-(6-amino-2,4-dimethyl-3-oxo-2,3,4,5-tetrahydro-pyrazin-2-yl)-phenyl]-amide]				<5	<5	
CN1CC(N)=NC(C)(c2cccc(-c3cncnc3)c2)C1=O (racemic) [Compound 1, rac-5-amino-1,3-dimethyl-3-(3-pyrimidin-5-yl-phenyl)-3,6-dihydro-1H-pyrazin-2-one]	20.4	4.47	3.89			223.4

Now from value to compound:

IC50 [1] [µM]	IC50 [2] [µM]	IC50 [3] [µM]	Cellular αlisa assay in SKNBE2 cells Aβ42 pIC50 [2]	Cellular αlisa assay in SKNBE2 cells Aβtotal pIC50 [3]	melting point [°C]	SMILES
> 30.2	> 10	9.12			81.8	CCN1CC(N)=NC(C)(c2cc(-c3cncc(OC)c3)c(F)cc2F)C1=O (racemic) [Compound 9, rac-5-amino-3-[2,4-difluoro-5-(5-methoxy-pyridin-3-yl)-phenyl]-1-ethyl-3-methyl-3,6-dihydro-1H-pyrazin-2-one]
			7.44	7.43		CN1CC(N)=NC(C)(c2cccc(NC(=O)c3ccc(Cl)cn3)c2)C1=O (single isomer, unassigned) [Compound 5, (R*)-5-chloro-pyridine-2-carboxylic acid [3-(6-amino-2,4-dimethyl-3-oxo-2,3,4,5-tetrahydro-pyrazin-2-yl)-phenyl]-amide]
7.08	1.26	1.15				Cc1cnc(C(=O)Nc2cccc(C3(C)N=C(N)CN(C)C3=O)c2)cn1 (racemic) [Compound 6, rac-5-methyl-pyrazine-2-carboxylic acid [3-(6-amino-2,4-dimethyl-3-oxo-2,3,4,5-tetrahydro-pyrazin-2-yl)-phenyl]-amide]
